# Assay results from US20060264419A1 (priority 2003, published 2006).
# Target: 5-HT2A receptors (Rattus norvegicus, UniProt P14842)
# Test: in-vitro affinity to 5-HT2A receptors, displacement of [3H]ketanserine (Example A1)
# Format: binding
# Details: read-out: HT2A IC50
# Source text: The 5-HT2A receptors are exposed both to [^3H]ketanserine (a substance which is known for its affinity to the receptor) and also to the test compound. The decrease in the affinity of [^3H]ketanserine to the receptor is an indication of the affinity of the test substance to the 5-HT2A receptor.
# Chain of 5-HT2A receptors (P14842 whole entry): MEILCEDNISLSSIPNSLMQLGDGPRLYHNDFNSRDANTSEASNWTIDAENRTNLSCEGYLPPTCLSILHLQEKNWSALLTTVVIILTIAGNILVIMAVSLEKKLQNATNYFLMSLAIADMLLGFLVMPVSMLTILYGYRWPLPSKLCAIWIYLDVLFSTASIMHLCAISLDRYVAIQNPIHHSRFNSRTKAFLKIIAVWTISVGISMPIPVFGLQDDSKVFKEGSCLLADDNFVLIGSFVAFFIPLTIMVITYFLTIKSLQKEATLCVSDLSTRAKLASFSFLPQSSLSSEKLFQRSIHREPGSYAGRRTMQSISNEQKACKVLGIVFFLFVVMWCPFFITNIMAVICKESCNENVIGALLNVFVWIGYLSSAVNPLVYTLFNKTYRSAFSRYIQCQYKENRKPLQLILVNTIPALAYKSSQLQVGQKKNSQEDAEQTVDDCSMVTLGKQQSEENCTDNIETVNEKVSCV
row,Molecule,IC50 [µM]
1,"CN(C)C(=O)CNCc1cnn(-c2ccc(-c3ccccc3)cc2)c1-c1ccccc1F [Example 1010, 2-{[1-Biphenyl-4-yl-5-(2-fluorophenyl)-1H-pyrazol-4-ylmethyl]amino}-N,N-dimethyl-acetamide]",0.2
2,"Fc1ccccc1-c1c(CNC2C3CNCC32)cnn1-c1ccc(-c2ccccc2)cc1 (stereo not shown) [Example 1041, (3-Azabicyclo[3.1.0]hex-6-yl)-[1-biphenyl-4-yl-5-(2-fluorophenyl)-1H-pyrazol-4-ylmethyl]-amine]",0.32
3,"O=C(c1cnn(-c2ccc(-c3ccccc3)cc2)c1-c1ccccc1F)N1CCOCC1 [Example 1043, 1-[1-Biphenyl-4-yl-5-(2-fluorophenyl)-1H-pyrazol-4-yl]-1-morpholin-4-ylmethanone]",0.36

# The remaining lines, values ahead:
row,IC50 [µM],Molecule
1,0.056,"CN1CCN(Cc2cnn(-c3ccc(-c4ccc(F)cc4F)cc3)c2-c2ccccc2F)CC1 [Example 955, 1-[1-(2′,4′-Difluorobiphenyl-4-yl)-5-(2-fluoro-phenyl)-1H-pyrazol-4-ylmethyl]-4-methyl-piperazine]"
2,0.066,"Fc1ccccc1-c1c(CN2CCC(Cc3cccnc3)CC2)cnn1-c1ccc(-c2ccccc2)cc1 [Example 962, 3-{1-[1-Biphenyl-4-yl-5-(2-fluoro-phenyl)-1H-pyrazol-4-ylmethyl}piperidin-4-ylmethyl]pyridine]"
3,0.13,"CC1CCN(Cc2cnn(-c3ccc(-c4ccccc4)cc3)c2-c2ccccc2F)CC1 [Example 986, 1-[1-Biphenyl-4-yl-5-(2-fluorophenyl)-1H-pyrazol-4-ylmethyl]-4-methylpiperidine]"
4,0.14,"Cc1ccc(-c2c(CN3CCN(C)CC3)cnn2-c2ccc(-c3ccc(F)cc3)cc2)cc1 [Example 994, 1-[1-(4′-Fluorobiphenyl-4-yl)-5-p-tolyl-1H-pyrazol-4-ylmethyl]-4-methylpiperazine]"
5,0.28,"N#CCNCc1cnn(-c2ccc(-c3ccccc3)cc2)c1-c1ccccc1F [Example 1034, {[1-Biphenyl-4-yl-5-(2-fluorophenyl)-1H-pyrazol-4-ylmethyl]amino}acetonitrile]"
6,0.27,"O=C(NCCO)C1CCN(Cc2cnn(-c3ccc(-c4ccccc4)cc3)c2-c2ccccc2F)CC1 [Example 1030, N-(2-Hydroxyethyl)-1-[1-biphenyl-4-yl-5-(2-fluorophenyl)-1H-pyrazol-4-ylmethyl]piperidine-4-carboxamide]"
7,0.28,"OCCN1CCN(Cc2cnn(-c3ccc(-c4ccccc4)cc3)c2-c2ccccc2F)CC1 [Example 1032, 2-{4-[1-Biphenyl-4-yl-5-(2-fluoro-phenyl)-1H-pyrazol-4-ylmethyl]piperazin-1-yl}ethanol]"
8,0.22,"Cc1cccc(-c2ccc(-n3ncc(CN4CCN(C)CC4)c3-c3ccccc3F)cc2)c1 [Example 1017, 1-[5-(2-Fluorophenyl)-1-(3′-methylbiphenyl-4-yl)-1H-pyrazol-4-ylmethyl]-4-methylpiperazine]"
9,0.058,"CCOC(=O)N1CCN(Cc2cnn(-c3ccc(-c4ccccc4)cc3)c2-c2ccccc2F)CC1 [Example 957, Ethyl 4-[1-biphenyl-4-yl-5-(2-fluoro-phenyl)-1H-pyrazol-4-ylmethyl]piperazine-1-carboxylate]"
10,0.081,"CN(C)Cc1ccccc1-c1ccc(-n2ncc(CN3CCN(C)CC3)c2-c2ccccc2F)cc1 [Example 970, {4′-[5-(2-Fluorophenyl)-4-(4-methyl-piperazin-1-ylmethyl)pyrazol-1-yl]biphenyl-2-ylmethyl}-dimethylamine]"
11,0.2,"CCN1CCN(Cc2cnn(-c3ccc(-c4ccc(F)cc4)cc3)c2-c2ccc(OC)cc2)CC1 [Example 1011, 1-Ethyl-4-[1-(4′-fluorobiphenyl-4-yl)-5-(4-methoxyphenyl)-1H-pyrazol-4-ylmethyl]-piperazine]"

# Same assay, conditions: target not given; description names affinity to 5-HT2A receptors; read-out: IC50
row,Molecule,IC50 [µM]
1,"CN(C)C(=O)CNCc1cnn(-c2ccc(-c3ccccc3)cc2)c1-c1ccccc1F [(128), 2-{[1-Biphenyl-4-yl-5-(2-fluorophenyl)-1H-pyrazol-4-ylmethyl]-amino}-N,N-dimethylacetamide]",0.2
2,"COC(=O)c1cc(NCc2cnn(-c3ccc(-c4ccccc4)cc3)c2-c2ccccc2F)cn1C [(162), Methyl 4-{[1-biphenyl-4-yl-5-(2-fluorophenyl)-1H-pyrazol-4-ylmethyl]amino}-1-methyl-1H-pyrrole-2-carboxylate]",0.12
3,"Cc1nn(C)c(C)c1NCc1cnn(-c2ccc(-c3ccccc3)cc2)c1-c1ccccc1F [(187), [1-Biphenyl-4-yl-5-(2-fluorophenyl)-1H-pyrazol-4-ylmethyl]-(1,3,5-trimethyl-1H-pyrazol-4-yl)amine]",0.59
4,"CN1CCN(Cc2cnn(-c3ccc(-c4cc(F)ccc4F)cc3)c2-c2ccco2)CC1 [(69), 1-[1-(2′,5′-Difluorobiphenyl-4-yl)-5-furan-2-yl-1H-pyrazol-4-ylmethyl]-4-methylpiperazine]",0.036
5,"CC(C)(C)OC(=O)N1CCN(Cc2cnn(-c3ccc(-c4ccccc4)cc3)c2-c2ccccc2F)CC1 [(54), tert-Butyl 4-[1-Biphenyl-4-yl-5-(2-fluorophenyl)-1H-pyrazol-4-ylmethyl]piperazine-1-carboxylate]",0.082
6,"COCCCNCc1cnn(-c2ccc(-c3ccccc3)cc2)c1-c1ccccc1F [(26), [1-Biphenyl-4-yl-5-(2-fluorophenyl)-1H-pyrazol-4-ylmethyl]-(3-methoxypropyl)amine]",0.034
7,"NCCNCc1cnn(-c2ccc(-c3ccccc3)cc2)c1-c1ccccc1F [(76), N^1-[1-Biphenyl-4-yl-5-(2-fluorophenyl)-1H-pyrazol-4-ylmethyl]-ethane-1,2-diamine]",0.0065
8,"Fc1ccccc1-c1c(CCN2CCOCC2)cnn1-c1ccc(-c2ccccc2)cc1 [(42), 4-{2-[1-Biphenyl-4-yl-5-(2-fluorophenyl)-1H-pyrazol-4-yl]ethyl}morpholine]",0.012
9,"COC(=O)CCNCc1cnn(-c2ccc(-c3ccccc3)cc2)c1-c1ccccc1F [(112), Methyl 3-{[1-biphenyl-4-yl-5-(2-fluorophenyl)-1H-pyrazol-4-ylmethyl]amino}propionate]",0.21
10,"Fc1ccccc1-c1c(CCl)cnn1-c1ccc(-c2ccccc2)cc1 [(189), 1-Biphenyl-4-yl-4-chloromethyl-5-(2-fluorophenyl)-1H-pyrazole]",1.1
11,"CN1CCN(Cc2cnn(-c3ccc(-c4ccccc4)cc3)c2-c2ccccc2F)CC1 [(41), 1-[1-Biphenyl-4-yl-5-(2-fluorophenyl)-1H-pyrazol-4-ylmethyl]-4-methylpiperazine]",0.024
12,"Fc1ccccc1-c1c(CNCc2nc3ccccc3[nH]2)cnn1-c1ccc(-c2ccccc2)cc1 [(133), (1H-Benzoimidazol-2-ylmethyl)-[1-biphenyl-4-yl-5-(2-fluorophenyl)-1H-pyrazol-4-ylmethyl]amine]",0.076
13,"CN1CCN(Cc2cnn(-c3ccc(-c4ccc(F)cc4)cc3)c2-c2ccc(F)cc2)CC1 [(100), 1-[1-(4′-Fluorobiphenyl-4-yl)-5-(4-fluorophenyl)-1H-pyrazol-4-ylmethyl]-4-methylpiperazine]",0.025
14,"NC(=O)CNCc1cnn(-c2ccc(-c3ccccc3)cc2)c1-c1ccccc1F [(118), 2-{[1-Biphenyl-4-yl-5-(2-fluorophenyl)-1H-pyrazol-4-ylmethyl]-amino}acetamide]",0.73
15,1-Biphenyl-4-yl-5-(2-fluorophenyl)-4-(2-methoxy-methylpyrrolidin-1-ylmethyl)-1H-pyrazole [(48)],0.51

# Continued, values first:
row,IC50 [µM],Molecule
1,0.025,"CN1CCN(Cc2cnn(-c3ccc(-c4ccccc4F)cc3)c2-c2ccco2)CC1 [(103), 1-[1-(2′-Fluorobiphenyl-4-yl)-5-furan-2-yl-1H-pyrazol-4-ylmethyl]-4-methylpiperazine]"
2,0.22,"CN1CCN(Cc2cnn(-c3ccc(-c4ccccc4)nc3)c2-c2ccccc2F)CC1 [(57), 1-[5-(2-Fluorophenyl)-1-(6-phenylpyridin-3-yl)-1H-pyrazol-4-ylmethyl]-4-methylpiperazine]"
3,0.25,"CN1CCC(N(C)Cc2cnn(-c3ccc(-c4ccc(F)cc4)nc3)c2-c2ccccc2F)CC1 [(143), {5-(2-Fluorophenyl)-1-[6-(4-fluorophenyl)pyridin-3-yl]-1H-pyrazol-4-ylmethyl}methyl-(1-methylpiperidin-4-yl)amine]"
4,0.26,CN1CCN(Cc2cnn(-c3ccc(-c4ccccc4)cc3)c2C(F)(F)F)CC1 [(67)]
5,0.56,"Fc1ccccc1-c1c(CN2CCC(N3CCOCC3)CC2)cnn1-c1ccc(-c2ccccc2)cc1 [(25), 4-{1-[1-Biphenyl-4-yl-5-(2-fluorophenyl)-1H-pyrazol-4-ylmethyl]piperidin-4-yl}morpholine]"
6,0.28,"N#CCNCc1cnn(-c2ccc(-c3ccccc3)cc2)c1-c1ccccc1F [(124), {[1-Biphenyl-4-yl-5-(2-fluorophenyl)-1H-pyrazol-4-ylmethyl]-amino}acetonitrile]"
7,0.62,"CN1CCN(CC(O)CC(O)c2cnn(-c3ccc(-c4ccccc4)cc3)c2-c2ccccc2F)CC1 (stereo not shown) [(149), 1-[1-Biphenyl-4-yl-5-(2-fluorophenyl)-1H-pyrazol-4-yl]-4-(4-methylpiperazin-1-yl)butane-1,3-diol]"
8,0.3,"COCCN(C)Cc1cnn(-c2ccc(-c3ccc(F)cc3)nc2)c1-c1ccccc1F [(156), {5-(2-Fluorophenyl)-1-[6-(4-fluorophenyl)pyridin-3-yl]-1H-pyrazol-4-ylmethyl}-(2-methoxyethyl)methylamine]"
9,1.1,"Fc1ccccc1-c1c(CN2CCOCC2)cnn1-c1ccc(-c2ccccc2)cc1 [(28), 4-[1-Biphenyl-4-yl-5-(2-fluorophenyl)-1H-pyrazol-4-ylmethyl]-morpholine]"
10,0.69,"CCOC(=O)CN1CCN(Cc2cnn(-c3ccc(-c4ccccc4)cc3)c2-c2ccccc2F)CC1 [(73), Ethyl {4-[1-biphenyl-4-yl-5-(2-fluorophenyl)-1H-pyrazol-4-ylmethyl]piperazin-1-yl}acetate]"
11,0.27,"O=C(NCCO)C1CCN(Cc2cnn(-c3ccc(-c4ccccc4)cc3)c2-c2ccccc2F)CC1 [(164), N-(2-Hydroxyethyl)-1-[1-biphenyl-4-yl-5-(2-fluorophenyl)-1H-pyrazol-4-ylmethyl]piperidine-4-carboxamide]"
